Measurements from the NIST ThermoML archive (doi:10.1021/je700260f).
± gives the expanded uncertainty stated by the source.

Details: 283.14 K, Liquid, Vibrating tube method

FC(C(F)(F)F)C(F)(F)F [1,1,1,2,3,3,3-heptafluoropropane]
Details | mass density [kg/m3]
5782 kPa | 1478.8 ± 1.5
5822 kPa | 1478.8 ± 1.5
5855 kPa | 1479 ± 1.5
5879 kPa | 1479.1 ± 1.5
5908 kPa | 1479.3 ± 1.5
5934 kPa | 1479.4 ± 1.5
5968 kPa | 1479.6 ± 1.5
6005 kPa | 1479.8 ± 1.5
6027 kPa | 1480 ± 1.5
6058 kPa | 1480 ± 1.5
6101 kPa | 1480.2 ± 1.5
6135 kPa | 1480.5 ± 1.5
6165 kPa | 1480.5 ± 1.5
6229 kPa | 1480.8 ± 1.5
6973 kPa | 1484.5 ± 1.5
7472 kPa | 1486.7 ± 1.5
7512 kPa | 1487.1 ± 1.5
7539 kPa | 1487.1 ± 1.5
7568 kPa | 1487.2 ± 1.5
7596 kPa | 1487.1 ± 1.5
7625 kPa | 1487.3 ± 1.5
7646 kPa | 1487.8 ± 1.5
7680 kPa | 1487.8 ± 1.5
7705 kPa | 1487.9 ± 1.5
7731 kPa | 1488 ± 1.5
7762 kPa | 1488.1 ± 1.5
7796 kPa | 1488.3 ± 1.5
7826 kPa | 1488.4 ± 1.5
7851 kPa | 1488.5 ± 1.5
7877 kPa | 1488.7 ± 1.5
7906 kPa | 1488.9 ± 1.5
7932 kPa | 1488.9 ± 1.5
7965 kPa | 1489 ± 1.5
7991 kPa | 1489.2 ± 1.5
8025 kPa | 1489.4 ± 1.5
8050 kPa | 1489.5 ± 1.5
8079 kPa | 1489.7 ± 1.5
8109 kPa | 1489.6 ± 1.5
8138 kPa | 1489.9 ± 1.5
8164 kPa | 1490.1 ± 1.5
8197 kPa | 1490 ± 1.5
8223 kPa | 1490.2 ± 1.5
8257 kPa | 1490.4 ± 1.5
8291 kPa | 1490.6 ± 1.5
8322 kPa | 1490.7 ± 1.5
10618 kPa | 1500.7 ± 1.6
10644 kPa | 1500.8 ± 1.6
10678 kPa | 1500.9 ± 1.6
10708 kPa | 1501.2 ± 1.6
10744 kPa | 1501.3 ± 1.6
11092 kPa | 1502.7 ± 1.6
11124 kPa | 1502.9 ± 1.6
11146 kPa | 1503 ± 1.6
11176 kPa | 1503.1 ± 1.6
11211 kPa | 1503.2 ± 1.6
11232 kPa | 1503.2 ± 1.6
11263 kPa | 1503.4 ± 1.6
11289 kPa | 1503.6 ± 1.6
11324 kPa | 1503.9 ± 1.6
11358 kPa | 1503.9 ± 1.6
11384 kPa | 1503.9 ± 1.6
11414 kPa | 1504.1 ± 1.6
11455 kPa | 1504.2 ± 1.6
11478 kPa | 1504.3 ± 1.6
11508 kPa | 1504.4 ± 1.6
11538 kPa | 1504.5 ± 1.6
11565 kPa | 1504.7 ± 1.6
11601 kPa | 1504.8 ± 1.6
11631 kPa | 1505 ± 1.6
11663 kPa | 1505 ± 1.6
11698 kPa | 1505.4 ± 1.6
11725 kPa | 1505.4 ± 1.6
11760 kPa | 1505.6 ± 1.6
11791 kPa | 1505.6 ± 1.6
11822 kPa | 1505.7 ± 1.6
11844 kPa | 1505.9 ± 1.6
11874 kPa | 1506 ± 1.6
11901 kPa | 1506.1 ± 1.6
11923 kPa | 1506.3 ± 1.6
11958 kPa | 1506.3 ± 1.6
11993 kPa | 1506.4 ± 1.6
12020 kPa | 1506.5 ± 1.6
12055 kPa | 1506.7 ± 1.6
12082 kPa | 1506.9 ± 1.6
12816 kPa | 1509.7 ± 1.6
12856 kPa | 1510.1 ± 1.6
12892 kPa | 1510.2 ± 1.6
12918 kPa | 1510.3 ± 1.6
12955 kPa | 1510.4 ± 1.6
12996 kPa | 1510.6 ± 1.6
13027 kPa | 1510.6 ± 1.6
13054 kPa | 1510.9 ± 1.6
13090 kPa | 1510.9 ± 1.6
13123 kPa | 1511 ± 1.6
13165 kPa | 1511.2 ± 1.6
13197 kPa | 1511.2 ± 1.6
13235 kPa | 1511.5 ± 1.6
13290 kPa | 1511.7 ± 1.6
13323 kPa | 1511.8 ± 1.6
13385 kPa | 1512 ± 1.6
13417 kPa | 1512.2 ± 1.6
13454 kPa | 1512.2 ± 1.6
13483 kPa | 1512.4 ± 1.6
